Measured values as given in patent US9688653B2, “Ethoxyphenyl thienyl compounds and methods for the treatment of bacterial infections” (Duke University, priority 2013, dated 2017).

Legend:
panel of 68 receptors [1] = target: panel of 68 receptors (Homo sapiens, UniProt P24530); details: Endothelin ETB, hum, 10 μM
panel of 68 receptors [2] = target: panel of 68 receptors (Homo sapiens, UniProt P07550); details: Adrenergic β2, hum, 10 μM
panel of 68 receptors [3] = target: panel of 68 receptors (Rattus norvegicus, UniProt P15207); details: Androgen (Testosterone) AR, rat, 10 μM
Sequence of panel of 68 receptors (Rattus norvegicus, UniProt P15207) (P15207 whole entry S389L): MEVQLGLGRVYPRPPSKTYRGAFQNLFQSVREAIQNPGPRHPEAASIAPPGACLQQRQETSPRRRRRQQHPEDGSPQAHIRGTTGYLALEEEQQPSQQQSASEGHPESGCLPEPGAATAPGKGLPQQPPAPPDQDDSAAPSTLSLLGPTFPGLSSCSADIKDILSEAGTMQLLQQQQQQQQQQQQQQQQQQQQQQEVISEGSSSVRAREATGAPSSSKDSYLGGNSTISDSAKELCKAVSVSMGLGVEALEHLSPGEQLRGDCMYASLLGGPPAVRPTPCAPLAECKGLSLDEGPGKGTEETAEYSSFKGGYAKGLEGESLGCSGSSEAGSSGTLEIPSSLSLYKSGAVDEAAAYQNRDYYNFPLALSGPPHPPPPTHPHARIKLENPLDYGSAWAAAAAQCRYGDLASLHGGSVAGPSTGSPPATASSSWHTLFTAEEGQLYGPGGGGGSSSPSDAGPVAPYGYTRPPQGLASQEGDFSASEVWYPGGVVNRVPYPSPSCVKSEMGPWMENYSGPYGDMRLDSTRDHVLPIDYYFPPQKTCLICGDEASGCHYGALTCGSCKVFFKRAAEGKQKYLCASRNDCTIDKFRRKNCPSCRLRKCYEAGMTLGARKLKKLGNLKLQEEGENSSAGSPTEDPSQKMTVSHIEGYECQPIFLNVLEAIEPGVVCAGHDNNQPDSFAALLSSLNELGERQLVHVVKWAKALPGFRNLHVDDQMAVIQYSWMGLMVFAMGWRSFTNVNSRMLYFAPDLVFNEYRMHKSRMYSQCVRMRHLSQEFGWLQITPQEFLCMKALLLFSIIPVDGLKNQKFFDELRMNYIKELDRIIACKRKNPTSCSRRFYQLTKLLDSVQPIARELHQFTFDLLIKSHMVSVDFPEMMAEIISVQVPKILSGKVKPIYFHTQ

panel of 68 receptors [4] = target: panel of 68 receptors (Homo sapiens, UniProt Q9Y271); details: Leukotriene, Cysteinyl CysLT1, hum, 10 μM
panel of 68 receptors [5] = target: panel of 68 receptors (Homo sapiens, UniProt P46663); details: Bradykinin B1, hum, 10 μM
panel of 68 receptors [6] = target: panel of 68 receptors (Homo sapiens, UniProt P11229); details: Muscarinic M1, hum, 10 μM
panel of 68 receptors [7] = target: panel of 68 receptors (Homo sapiens, UniProt P25021); details: Histamine H2, hum, 10 μM
panel of 68 receptors [8] = target: panel of 68 receptors (Homo sapiens, UniProt P25929); details: Neuropeptide Y Y1, hum, 10 μM
panel of 68 receptors [9] = target: panel of 68 receptors (Homo sapiens, UniProt P08908); details: Serotonin (5-Hydroxytryptamine) 5-HT1A, hum, 10 μM
panel of 68 receptors [10] = target: panel of 68 receptors (Homo sapiens, UniProt P29274); details: Adenosine A2A, hum, 10 μM
panel of 68 receptors [11] = target: panel of 68 receptors (Homo sapiens, UniProt P35408); details: Prostanoid EP4, hum, 10 μM
panel of 68 receptors [12] = target: panel of 68 receptors (Homo sapiens, UniProt Q9Y5N1); details: Histamine H3, hum, 10 μM
panel of 68 receptors [13] = target: panel of 68 receptors (Homo sapiens, UniProt P25100); details: Adrenergic α1D, hum, 10 μM
Sequence of panel of 68 receptors (Homo sapiens, UniProt P25100) (P25100 whole entry): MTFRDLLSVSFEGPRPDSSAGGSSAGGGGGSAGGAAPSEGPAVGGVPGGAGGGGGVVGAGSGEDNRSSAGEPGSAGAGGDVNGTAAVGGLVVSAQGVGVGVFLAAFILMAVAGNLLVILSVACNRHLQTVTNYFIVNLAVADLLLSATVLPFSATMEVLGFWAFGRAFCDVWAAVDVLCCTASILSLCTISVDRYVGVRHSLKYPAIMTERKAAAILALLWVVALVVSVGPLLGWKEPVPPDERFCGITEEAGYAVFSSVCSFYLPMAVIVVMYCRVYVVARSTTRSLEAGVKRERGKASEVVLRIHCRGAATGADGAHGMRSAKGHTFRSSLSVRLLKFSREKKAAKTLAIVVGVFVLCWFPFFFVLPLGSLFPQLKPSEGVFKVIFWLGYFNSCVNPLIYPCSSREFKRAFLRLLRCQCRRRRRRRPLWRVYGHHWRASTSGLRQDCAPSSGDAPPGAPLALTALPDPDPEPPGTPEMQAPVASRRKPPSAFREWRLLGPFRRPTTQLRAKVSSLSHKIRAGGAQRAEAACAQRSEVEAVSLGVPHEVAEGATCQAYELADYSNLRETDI

panel of 68 receptors [14] = target: panel of 68 receptors (Homo sapiens, UniProt P04150); details: Glucocorticoid, hum, 10 μM
panel of 68 receptors [15] = target: panel of 68 receptors (Homo sapiens, UniProt P30411); details: Bradykinin B2, hum, 10 μM
panel of 68 receptors [16] = target: panel of 68 receptors (Homo sapiens, UniProt Q99720); details: Sigma σ1, hum, 10 μM
Sequence of panel of 68 receptors (Homo sapiens, UniProt Q99720) (Q99720 whole entry): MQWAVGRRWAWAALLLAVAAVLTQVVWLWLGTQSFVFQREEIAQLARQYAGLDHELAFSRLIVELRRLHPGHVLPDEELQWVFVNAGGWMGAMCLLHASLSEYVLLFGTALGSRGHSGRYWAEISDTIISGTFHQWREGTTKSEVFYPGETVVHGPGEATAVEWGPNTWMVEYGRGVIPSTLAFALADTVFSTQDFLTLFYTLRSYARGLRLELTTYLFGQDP

panel of 68 receptors [17] = target: panel of 68 receptors (Homo sapiens, UniProt P46098); details: Serotonin (5-Hydroxytryptamine) 5-HT3, hum, 10 μM
panel of 68 receptors [18] = target: panel of 68 receptors (Homo sapiens, UniProt P25105); details: Platelet Activating Factor (PAF), hum, 10 μM
panel of 68 receptors [19] = target: panel of 68 receptors (Homo sapiens, UniProt P41145); details: Opiate κ(OP2, KOP), hum, 10 μM
Sequence of panel of 68 receptors (Homo sapiens, UniProt P41145) (P41145 whole entry): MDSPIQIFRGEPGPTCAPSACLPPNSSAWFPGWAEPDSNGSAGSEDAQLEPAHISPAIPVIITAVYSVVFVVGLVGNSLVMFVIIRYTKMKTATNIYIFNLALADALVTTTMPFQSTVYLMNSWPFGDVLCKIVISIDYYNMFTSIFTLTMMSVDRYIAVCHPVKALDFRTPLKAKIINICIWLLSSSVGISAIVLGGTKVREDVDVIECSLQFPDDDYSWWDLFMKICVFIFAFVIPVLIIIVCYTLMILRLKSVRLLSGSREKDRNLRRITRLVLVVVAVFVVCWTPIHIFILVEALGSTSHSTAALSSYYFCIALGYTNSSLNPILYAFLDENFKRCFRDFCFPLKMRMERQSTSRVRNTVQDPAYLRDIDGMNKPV

panel of 68 receptors [20] = target: panel of 68 receptors (Homo sapiens, UniProt Q9UBS5); details: GABAB1A, hum, 10 μM
panel of 68 receptors [21] = target: panel of 68 receptors (Rattus norvegicus, UniProt Q02294); details: Calcium Channel N-Type, rat, 10 μM
panel of 68 receptors [22] = target: panel of 68 receptors (Homo sapiens, UniProt P41595); details: Serotonin (5-Hydroxytryptamine) 5-HT2B, hum, 10 μM
panel of 68 receptors [23] = target: panel of 68 receptors (Rattus norvegicus, UniProt P43140); details: Adrenergic α1A, rat, 10 μM
panel of 68 receptors [24] = target: panel of 68 receptors (Homo sapiens, UniProt P35367); details: Histamine H1, hum, 10 μM
Sequence of panel of 68 receptors (Homo sapiens, UniProt P35367) (P35367 whole entry): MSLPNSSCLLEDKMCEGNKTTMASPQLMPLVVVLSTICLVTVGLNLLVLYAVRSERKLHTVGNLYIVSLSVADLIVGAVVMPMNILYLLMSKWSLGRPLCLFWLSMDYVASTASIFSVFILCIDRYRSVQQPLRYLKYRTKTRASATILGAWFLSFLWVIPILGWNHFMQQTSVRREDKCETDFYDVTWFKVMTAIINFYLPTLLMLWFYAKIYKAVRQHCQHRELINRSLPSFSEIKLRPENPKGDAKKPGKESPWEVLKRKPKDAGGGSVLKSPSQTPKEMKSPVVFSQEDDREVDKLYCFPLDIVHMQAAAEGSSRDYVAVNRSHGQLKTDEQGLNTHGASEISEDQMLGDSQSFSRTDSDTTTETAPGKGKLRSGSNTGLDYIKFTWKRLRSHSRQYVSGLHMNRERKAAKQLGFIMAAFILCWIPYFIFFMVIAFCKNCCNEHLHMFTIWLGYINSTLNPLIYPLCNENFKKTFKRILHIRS

panel of 68 receptors [25] = target: panel of 68 receptors (Homo sapiens, UniProt P31645); details: Transporter, Serotonin (5-Hydroxytryptamine) (SERT), hum, 10 μM
panel of 68 receptors [26] = target: panel of 68 receptors (Homo sapiens, UniProt P08172); details: Muscarinic M2, hum, 10 μM
Sequence of panel of 68 receptors (Homo sapiens, UniProt P08172) (P08172 whole entry): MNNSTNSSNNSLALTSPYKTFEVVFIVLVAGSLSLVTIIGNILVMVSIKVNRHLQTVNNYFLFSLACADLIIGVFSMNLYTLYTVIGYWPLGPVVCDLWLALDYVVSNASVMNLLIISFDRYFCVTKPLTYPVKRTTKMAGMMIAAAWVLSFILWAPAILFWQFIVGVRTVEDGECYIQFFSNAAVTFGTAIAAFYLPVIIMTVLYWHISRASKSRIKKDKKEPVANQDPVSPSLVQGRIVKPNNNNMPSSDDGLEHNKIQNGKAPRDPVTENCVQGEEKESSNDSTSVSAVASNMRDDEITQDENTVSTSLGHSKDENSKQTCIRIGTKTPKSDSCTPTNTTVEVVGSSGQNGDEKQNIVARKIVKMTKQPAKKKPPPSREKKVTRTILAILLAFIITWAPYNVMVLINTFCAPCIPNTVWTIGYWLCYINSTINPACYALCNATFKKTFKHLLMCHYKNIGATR

panel of 68 receptors [27] = target: panel of 68 receptors (Homo sapiens, UniProt P49146); details: Neuropeptide Y Y2, hum, 10 μM
panel of 68 receptors [28] = target: panel of 68 receptors (Homo sapiens, UniProt P08913); details: Adrenergic α2A, hum, 10 μM
Sequence of panel of 68 receptors (Homo sapiens, UniProt P08913) (P08913 whole entry): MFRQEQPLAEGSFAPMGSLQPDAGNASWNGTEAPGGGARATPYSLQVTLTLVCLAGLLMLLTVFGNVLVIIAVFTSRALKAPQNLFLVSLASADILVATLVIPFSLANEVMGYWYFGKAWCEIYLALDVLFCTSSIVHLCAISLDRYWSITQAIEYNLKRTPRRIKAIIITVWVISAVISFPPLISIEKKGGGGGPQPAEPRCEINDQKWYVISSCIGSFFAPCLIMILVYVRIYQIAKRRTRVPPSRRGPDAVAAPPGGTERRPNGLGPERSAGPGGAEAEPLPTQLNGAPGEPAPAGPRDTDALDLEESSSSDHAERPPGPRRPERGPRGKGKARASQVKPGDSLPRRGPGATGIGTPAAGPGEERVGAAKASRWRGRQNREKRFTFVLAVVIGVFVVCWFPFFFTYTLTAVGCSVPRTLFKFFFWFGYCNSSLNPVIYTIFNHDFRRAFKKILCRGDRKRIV

panel of 68 receptors [29] = target: panel of 68 receptors (Homo sapiens, UniProt P20309); details: Muscarinic M3, hum, 10 μM
panel of 68 receptors [30] = target: panel of 68 receptors (Homo sapiens, UniProt P35462); details: Dopamine D3, hum, 10 μM
panel of 68 receptors [31] = target: panel of 68 receptors (Homo sapiens, UniProt P25101); details: Endothelin ETA, hum, 10 μM
panel of 68 receptors [32] = target: panel of 68 receptors (Rattus norvegicus, UniProt P15823); details: Adrenergic α1B, rat, 10 μM
panel of 68 receptors [33] = target: panel of 68 receptors (Homo sapiens, UniProt P21554); details: Cannabinoid CB1, hum, 10 μM
panel of 68 receptors [34] = target: panel of 68 receptors (Homo sapiens, UniProt P30542); details: Adenosine A1, hum, 10 μM
Sequence of panel of 68 receptors (Homo sapiens, UniProt P30542) (P30542 whole entry): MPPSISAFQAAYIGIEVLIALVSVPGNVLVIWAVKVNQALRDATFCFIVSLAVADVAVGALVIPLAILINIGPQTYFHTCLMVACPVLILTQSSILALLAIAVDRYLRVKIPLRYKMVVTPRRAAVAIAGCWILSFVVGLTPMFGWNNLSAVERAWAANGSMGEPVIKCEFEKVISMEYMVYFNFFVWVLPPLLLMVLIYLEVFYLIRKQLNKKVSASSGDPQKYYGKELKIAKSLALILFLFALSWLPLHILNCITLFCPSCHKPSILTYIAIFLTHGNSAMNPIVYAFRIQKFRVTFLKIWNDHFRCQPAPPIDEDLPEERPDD

Sequence of panel of 68 receptors (Homo sapiens, UniProt P24530) (P24530 27-442): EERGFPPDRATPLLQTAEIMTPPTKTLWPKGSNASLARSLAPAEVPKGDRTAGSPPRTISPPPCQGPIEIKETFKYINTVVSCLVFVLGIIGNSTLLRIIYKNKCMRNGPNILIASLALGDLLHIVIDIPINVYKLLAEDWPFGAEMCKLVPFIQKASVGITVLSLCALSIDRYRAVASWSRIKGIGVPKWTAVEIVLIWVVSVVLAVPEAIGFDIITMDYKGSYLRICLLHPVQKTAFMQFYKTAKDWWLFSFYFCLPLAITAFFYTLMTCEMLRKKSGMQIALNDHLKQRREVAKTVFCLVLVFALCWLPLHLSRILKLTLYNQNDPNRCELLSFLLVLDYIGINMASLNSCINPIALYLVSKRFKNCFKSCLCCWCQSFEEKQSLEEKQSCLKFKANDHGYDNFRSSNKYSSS
Sequence of panel of 68 receptors (Homo sapiens, UniProt P07550) (P07550 whole entry): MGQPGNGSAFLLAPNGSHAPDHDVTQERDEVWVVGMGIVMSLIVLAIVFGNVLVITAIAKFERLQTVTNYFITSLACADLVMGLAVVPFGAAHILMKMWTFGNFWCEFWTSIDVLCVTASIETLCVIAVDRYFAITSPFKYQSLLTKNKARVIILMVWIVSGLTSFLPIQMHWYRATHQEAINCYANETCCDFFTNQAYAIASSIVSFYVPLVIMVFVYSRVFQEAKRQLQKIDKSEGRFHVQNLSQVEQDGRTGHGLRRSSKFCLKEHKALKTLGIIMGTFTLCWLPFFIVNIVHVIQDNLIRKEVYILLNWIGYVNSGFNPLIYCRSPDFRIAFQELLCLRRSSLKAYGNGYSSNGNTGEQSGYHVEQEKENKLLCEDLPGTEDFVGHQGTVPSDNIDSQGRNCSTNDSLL

CCOc1ccc(-c2cc(NC(=O)c3c(F)cccc3F)c(C(=O)O)s2)cc1 [KUC107784N-02]
% Inh. (panel of 68 receptors [1]): 3%
% Inh. (panel of 68 receptors [2]): 3%
% Inh. (panel of 68 receptors [3]): −5%
% Inh. (panel of 68 receptors [4]): 0%
% Inh. (panel of 68 receptors [5]): 3%
% Inh. (panel of 68 receptors [6]): 1%
% Inh. (panel of 68 receptors [7]): 2%
% Inh. (panel of 68 receptors [8]): 5%
% Inh. (panel of 68 receptors [9]): 4%
% Inh. (panel of 68 receptors [10]): 19%
% Inh. (panel of 68 receptors [11]): −4%
% Inh. (panel of 68 receptors [12]): 14%
% Inh. (panel of 68 receptors [13]): 2%
% Inh. (panel of 68 receptors [14]): −2%
% Inh. (panel of 68 receptors [15]): 6%
% Inh. (panel of 68 receptors [16]): 5%
% Inh. (panel of 68 receptors [17]): −11%
% Inh. (panel of 68 receptors [18]): 4%
% Inh. (panel of 68 receptors [19]): 14%
% Inh. (panel of 68 receptors [20]): 5%
% Inh. (panel of 68 receptors [21]): −16%
% Inh. (panel of 68 receptors [22]): 11%
% Inh. (panel of 68 receptors [23]): 16%
% Inh. (panel of 68 receptors [24]): 2%
% Inh. (panel of 68 receptors [25]): 8%
% Inh. (panel of 68 receptors [26]): −8%
% Inh. (panel of 68 receptors [27]): −3%
% Inh. (panel of 68 receptors [28]): −1%
% Inh. (panel of 68 receptors [29]): 14%
% Inh. (panel of 68 receptors [30]): 4%
% Inh. (panel of 68 receptors [31]): 8%
% Inh. (panel of 68 receptors [32]): 0%
% Inh. (panel of 68 receptors [33]): 13%
% Inh. (panel of 68 receptors [34]): 28%
